According to patent US4021472A, “Guanidinobenzoic acid derivatives” (Ono Pharmaceutical Co., Ltd., priority 1974, dated 1977):
Values after ≈ are worked out from the molar mass of the structure shown. Where two headings read alike, the source gives them in different places.

How the values were obtained:
rat pancreatitis = assay: Effect on rat pancreatitis induced by sodium taurocholate and trypsin (mortality); format: in vivo, rat (male Wistar); settings: intravenous injection
Protocol: Male Wistar rats weighing 200 to 250 g were laparotomized under anesthetization with pentobarbital and to the thus laparotomized rats 0.1 ml of a mixture of sodium taurocholate and trypsin was administered through the pancreatic duct to induce pancreatitis.
Mortality rates for up to 48 hrs. after the administration were compared between the groups in which the compounds of the present invention were injected intravenously and the control groups in which a physiological salt solution was injected intravenously.

trypsin = molecular target: T1, trypsin (Bos taurus, UniProt P00760); assay: Anti-trypsin: 50% inhibition of hydrolysis of p-tosylarginine methyl ester by trypsin in vitro; format: biochemical; settings: 37° C., 30 minutes, Tris-HCl buffer pH 8.5, p-tosylarginine methyl ester substrate; read-out: 50% Inhibition Concentration, Anti-Trypsin
T1 sequence (P00760 24-246): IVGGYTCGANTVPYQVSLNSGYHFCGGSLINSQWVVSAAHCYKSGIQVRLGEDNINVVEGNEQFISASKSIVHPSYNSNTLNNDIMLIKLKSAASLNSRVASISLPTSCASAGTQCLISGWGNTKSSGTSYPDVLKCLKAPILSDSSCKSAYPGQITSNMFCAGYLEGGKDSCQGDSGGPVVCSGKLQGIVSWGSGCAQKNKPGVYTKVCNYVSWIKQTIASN
Protocol: The inhibitory activities of representative compounds of formula (I) against plasmin and trypsin in vitro were determined in a manner similar to the method described by M. Muramatsu et al (J. Biochemistry 57, 402 (1965)) for plasmin, and the method described by M. Muramatsu et al (J. Biochemistry 58, 214 (1964)) for trypsin, as follows:
(2) Trypsin: A system comprising 0.4 ml of trypsin (1.25 μg/ml), 0.5 ml of p-tosylarginine methyl ester (20 mM) in Tris-HCl buffer (pH 8.5) and 0.1 ml of a solution of each of the following compounds of formula (I) at various concentrations was reacted at a temperature of 37° C. for 30 minutes. The concentration of each of the test compounds at which the activity of trypsin 0.5 μg to hydrolyze p-tosylarginine methyl ester was 50% inhibited is shown in Table 1 below. As a control, Trasylol (tradename of a peptide extracted from bovine organs having an inhibitory activity against a proteolytic enzyme and manufactured by Bayer A.G.) was used.

Solubility in water = format: physicochemical
plasmin [1] = assay: Inhibitory effects for fibrinolysis of plasmin (fibrinolytic activity in rabbits after human serum and streptokinase); format: in vivo, rabbit; settings: 5 mg/kg iv
Protocol: Inhibitory effects for fibrinolysis of plasmin were examined according to the method of S. Okamoto and U. Okamoto (Keio Journal of Medicine 11 (No. 3) 105 (1962)).
10 ml of human serum was administered to male rabbits weighing 2.0 to 2.5 Kg through the femoral vein, and after 2 minutes 50,000 units of streptokinase was administered to the rabbits intraveneously to activate plasmin.
Each of the test compounds of the present invention was administered to the rabbits at a dosage level of 5 mg/Kg 5 minutes after the administration of streptokinase. After 15, 30, 60, 90, 120 and 180 minutes, 0.5 ml of blood was drawn from the rabbits, and the blood then incubated at 37° C. for 3 hrs. to coagulate the blood. The thus formed blood clots were washed with water and dried. The dry weight of the blood clots was evaluated and compared with the normal value (the value obtained prior to administration of the human serum).
The values in Table 2 were calculated according to the following equation: [formula]

plasmin [2] = molecular target: T2, plasmin (Homo sapiens, UniProt P00747); assay: Anti-plasmin: 50% inhibition of plasmin in vitro (euglobulin/streptokinase/fibrinogen system); format: biochemical
T2 construct: from tissue
Protocol: (1) Plasmin: A system comprising 0.1 ml of human euglobulin (10 fold dilution), 0.1 ml of streptokinase (2000 unit/ml), 0.4 ml of fibrinogen (4% solution), 0.3 ml of a 0.1 M borate saline buffer solution (pH 7.4) and 0.1 ml of a solution of each of the following compounds of formula (I) at various concentrations was allowed to react at a temperature of 37° C. for 30 minutes.

[3] = 37° C., 30 minutes, borate saline buffer pH 7.4, human euglobulin, streptokinase, fibrinogen, read-out: 50% Inhibition Concentration, Anti-Plasmin

T2 sequence (P00747 581-810 limits assumed): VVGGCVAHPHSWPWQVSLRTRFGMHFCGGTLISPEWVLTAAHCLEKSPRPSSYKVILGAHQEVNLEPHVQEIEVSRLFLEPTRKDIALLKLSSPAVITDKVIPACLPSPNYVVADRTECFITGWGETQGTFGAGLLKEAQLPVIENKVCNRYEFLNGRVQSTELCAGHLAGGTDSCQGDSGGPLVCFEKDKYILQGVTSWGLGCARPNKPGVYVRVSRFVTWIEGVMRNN
T2 sequence (P00747 97-580 partner limits assumed): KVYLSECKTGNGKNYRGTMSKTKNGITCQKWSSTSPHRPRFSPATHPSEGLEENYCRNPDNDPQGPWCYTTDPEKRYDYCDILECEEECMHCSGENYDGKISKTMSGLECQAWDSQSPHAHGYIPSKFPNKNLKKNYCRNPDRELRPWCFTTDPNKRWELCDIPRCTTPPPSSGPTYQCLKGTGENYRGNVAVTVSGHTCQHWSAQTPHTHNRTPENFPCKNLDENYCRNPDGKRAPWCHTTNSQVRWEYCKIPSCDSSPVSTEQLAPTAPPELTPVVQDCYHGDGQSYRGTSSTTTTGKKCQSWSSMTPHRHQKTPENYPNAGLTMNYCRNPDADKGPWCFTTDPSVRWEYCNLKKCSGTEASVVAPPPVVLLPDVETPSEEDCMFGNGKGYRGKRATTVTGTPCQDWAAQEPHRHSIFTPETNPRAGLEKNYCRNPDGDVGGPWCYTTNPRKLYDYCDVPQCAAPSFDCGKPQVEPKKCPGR

Row | IC50 (trypsin) [nM] | solubility (Solubility in water) [mM] | IC50 (plasmin [2]; [3]) [nM] | SMILES | Mortality for 48 hrs. (rat pancreatitis; 1 mg/kg) [%] | Mortality for 48 hrs. (rat pancreatitis; 2.5 mg/kg) [%] | Mortality for 48 hrs. (rat pancreatitis; 5.0 mg/kg) [%] | Fibrinolytic Activity in Rabbits (plasmin [1]; 15 min. after) [%] | Fibrinolytic Activity in Rabbits (plasmin [1]; 30 min. after) [%] | Fibrinolytic Activity in Rabbits (plasmin [1]; 60 min. after) [%] | Fibrinolytic Activity in Rabbits (plasmin [1]; 90 min. after) [%] | Fibrinolytic Activity in Rabbits (plasmin [1]; 120 min. after) [%] | Fibrinolytic Activity in Rabbits (plasmin [1]; 180 min. after) [%] | IC50 (plasmin [2]) [nM]
1 | 3 | 1 (≈ 356 µg/mL) | 15 | N=C(N)Nc1ccc(C(=O)Oc2ccc(C(=O)OCC(N)=O)cc2)cc1 [compound 1] | – | – | – | – | – | – | – | – | – | –
2 | 2.7 | > 20 | 2 | CN(C)C(=O)COC(=O)c1ccc(OC(=O)c2ccc(NC(=N)N)cc2)cc1 [compound 3] | – | – | – | – | – | – | – | – | – | –
3 | 1.4 | 10 (≈ 4410 µg/mL) | 0.53 | CCCN(CCC)C(=O)COC(=O)c1ccc(OC(=O)c2ccc(NC(=N)N)cc2)cc1 [compound 4] | – | – | – | – | – | – | – | – | – | –
4 | 0.09 | 10 (≈ 4100 µg/mL) | 19.5 | CN(C)C(=O)COC(=O)C=Cc1ccc(OC(=O)c2ccc(NC(=N)N)cc2)cc1 [compound 6] | – | – | – | – | – | – | – | – | – | –
5 | 0.56 | 10 (≈ 4120 µg/mL) | 120 | CN(C)C(=O)COC(=O)CCc1ccc(OC(=O)c2ccc(NC(=N)N)cc2)cc1 [compound 7] | – | – | – | – | – | – | – | – | – | –
6 | 12 | 10 (≈ 3840 µg/mL) | 10 | CNC(=O)COC(=O)Cc1ccc(OC(=O)c2ccc(NC(=N)N)cc2)cc1 [compound 8] | – | – | – | – | – | – | – | – | – | –

Row | SMILES | IC50 (trypsin) [nM] | solubility (Solubility in water) [mM] | IC50 (plasmin [2]; [3]) [nM] | Mortality for 48 hrs. (rat pancreatitis; 1 mg/kg) [%] | Mortality for 48 hrs. (rat pancreatitis; 2.5 mg/kg) [%] | Mortality for 48 hrs. (rat pancreatitis; 5.0 mg/kg) [%] | Fibrinolytic Activity in Rabbits (plasmin [1]; 15 min. after) [%] | Fibrinolytic Activity in Rabbits (plasmin [1]; 30 min. after) [%] | Fibrinolytic Activity in Rabbits (plasmin [1]; 60 min. after) [%] | Fibrinolytic Activity in Rabbits (plasmin [1]; 90 min. after) [%] | Fibrinolytic Activity in Rabbits (plasmin [1]; 120 min. after) [%] | Fibrinolytic Activity in Rabbits (plasmin [1]; 180 min. after) [%] | IC50 (plasmin [2]) [nM]
7 | CNC(=O)COC(=O)c1ccc(OC(=O)c2ccc(NC(=N)N)cc2)cc1 [Compound No.2] | 3.5 | 50 (≈ 18500 µg/mL) | 1.6 | 85.7 | 42.8 | 30 | 0 | 0 | 2 | 2 | 12 | 31 | –
8 | CN(C)C(=O)COC(=O)Cc1ccc(OC(=O)c2ccc(NC(=N)N)cc2)cc1 [Compound No.5] | 8.5 | 100 (≈ 39800 µg/mL) | – | 64.2 | 50.0 | 44.4 | 0 | 0 | 4 | 20 | 46 | 52 | 38
